From ChEMBL document CHEMBL1201862, “PubChem BioAssay data set” (2004)
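Dose response: 5 concentrations. Exposure: 48 h. Format: 96-well plates. Endpoint: linear interpolation; highest concentration if not reached. Abbreviation: GI50, concentration required for 50% inhibition of growth.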 Calls of active or inactive are those of the source. Rule as the data show it: active = GI50 up to about 1.1 µM and inactive = higher.

Columns and labels:
Assay in all cases: inhibition of tumour cell growth, NCI panel, 48 h
SW-620 = tested on: SW-620
RPMI-8226 = tested on: RPMI-8226
MDA-MB-435 = tested on: MDA-MB-435
SK-MEL-28 = tested on: SK-MEL-28
HT-29 = tested on: HT-29
ACHN = tested on: ACHN
COLO 205 = tested on: COLO 205
HCT-116 = tested on: HCT-116
A549 = tested on: A549
SNB-75 = tested on: SNB-75
KM12 = tested on: KM12
MOLT-4 = tested on: MOLT-4
Hs-578T = tested on: Hs-578T
OVCAR-8 = tested on: OVCAR-8
OVCAR-5 = tested on: OVCAR-5
NCI-H522 = tested on: NCI-H522
HCC 2998 = tested on: HCC 2998
786-0 = tested on: 786-0
SNB-19 = tested on: SNB-19
CAKI-1 = tested on: CAKI-1
NCI-H23 = tested on: NCI-H23
UACC-257 = tested on: UACC-257
SK-OV-3 = tested on: SK-OV-3
HOP-92 = tested on: HOP-92
LOX IMVI = tested on: LOX IMVI
A498 = tested on: A498
NCI-H460 = tested on: NCI-H460
EKVX = tested on: EKVX
MCF7 = tested on: MCF7
UO-31 = tested on: UO-31
HCT-15 = tested on: HCT-15
OVCAR-3 = tested on: OVCAR-3
BT-549 = tested on: BT-549
SF-268 = tested on: SF-268
K562 = tested on: K562
NCI/ADR-RES = tested on: NCI/ADR-RES
MDA-MB-231 = tested on: MDA-MB-231
IGROV-1 = tested on: IGROV-1
Malme-3M = tested on: Malme-3M
TK-10 = tested on: TK-10
T47D = tested on: T47D
SK-MEL-5 = tested on: SK-MEL-5
NCI-H226 = tested on: NCI-H226
M14 = tested on: M14
HL-60 = tested on: HL-60
PC-3 = tested on: PC-3
SK-MEL-2 = tested on: SK-MEL-2
U-251 = tested on: U-251
SF-539 = tested on: SF-539
OVCAR-4 = tested on: OVCAR-4
SF-295 = tested on: SF-295
UACC-62 = tested on: UACC-62
DU-145 = tested on: DU-145
CCRF-CEM = tested on: CCRF-CEM
SN12C = tested on: SN12C

## Cc1cc(NC(=O)C(=O)Cc2cnc3ccccc3n2)c(S(=O)(=O)O)cc1Cl
SW-620
  GI50: > 100 µM (inactive)
RPMI-8226
  GI50: > 100 µM (inactive)
MDA-MB-435
  GI50: > 100 µM (inactive)
SK-MEL-28
  GI50: > 100 µM (inactive)
HT-29
  GI50: > 100 µM (inactive)
ACHN
  GI50: > 100 µM (inactive)
COLO 205
  GI50: > 100 µM (inactive)
HCT-116
  GI50: > 100 µM (inactive)
A549
  GI50: > 100 µM (inactive)
SNB-75
  GI50: > 100 µM (inactive)
KM12
  GI50: > 100 µM (inactive)
MOLT-4
  GI50: > 100 µM (inactive)
Hs-578T
  GI50: > 100 µM (inactive)
OVCAR-8
  GI50: > 100 µM (inactive)
OVCAR-5
  GI50: > 100 µM (inactive)
NCI-H522
  GI50: > 100 µM (inactive)
HCC 2998
  GI50: > 100 µM (inactive)
786-0
  GI50: > 100 µM (inactive)
SNB-19
  GI50: > 100 µM (inactive)
CAKI-1
  GI50: > 100 µM (inactive)
NCI-H23
  GI50: > 100 µM (inactive)
UACC-257
  GI50: > 100 µM (inactive)
SK-OV-3
  GI50: > 100 µM (inactive)
HOP-92
  GI50: > 100 µM (inactive)
LOX IMVI
  GI50: > 100 µM (inactive)
A498
  GI50: > 100 µM (inactive)
NCI-H460
  GI50: > 100 µM (inactive)
EKVX
  GI50: > 100 µM (inactive)
MCF7
  GI50: > 100 µM (inactive)
UO-31
  GI50: > 100 µM (inactive)
HCT-15
  GI50: > 100 µM
OVCAR-3
  GI50: > 100 µM (inactive)
BT-549
  GI50: > 100 µM (inactive)
SF-268
  GI50: > 100 µM (inactive)
K562
  GI50: > 100 µM (inactive)
NCI/ADR-RES
  GI50: > 100 µM (inactive)
MDA-MB-231
  GI50: > 100 µM (inactive)
IGROV-1
  GI50: > 100 µM (inactive)
Malme-3M
  GI50: > 100 µM (inactive)
TK-10
  GI50: > 100 µM (inactive)
T47D
  GI50: > 100 µM (inactive)
SK-MEL-5
  GI50: > 100 µM (inactive)
NCI-H226
  GI50: > 100 µM (inactive)
M14
  GI50: > 100 µM (inactive)
HL-60
  GI50: > 100 µM (inactive)
PC-3
  GI50: > 100 µM (inactive)
SK-MEL-2
  GI50: > 100 µM (inactive)
U-251
  GI50: > 100 µM (inactive)
SF-539
  GI50: > 100 µM (inactive)
OVCAR-4
  GI50: > 100 µM (inactive)
SF-295
  GI50: > 100 µM (inactive)
UACC-62
  GI50: > 100 µM (inactive)
DU-145
  GI50: > 100 µM (inactive)
CCRF-CEM
  GI50: > 100 µM (inactive)
SN12C
  GI50: > 100 µM (inactive)
